Experimental data from US20090099062A1 (priority 2007, published 2009).

Tests used:
Type in all cases: cell-based
[1] = test system: Wnt-mediated gene transcription; test: Topflash reporter assay in HEK 293 cells; details: Homo sapiens, HEK293; HEK 293 cells stimulated with Wnt3a, Topflash luciferase; read-out: EC50, inhibition of Wnt-mediated transcription
Description: Topflash reporter assay. HEK 293 cells stably expressing 8× Supertopflash were seeded in quadruplicate at 15,000 cells/well/100 μl of medium in 96 well-plate. […] Cells were lysed in passive lysis buffer (Promega), and luciferase was measured according to Promega's Steady-Glo protocol.

MDA-MB-231 = test: Cell viability (CellTiter-Glo), MDA-MB-231; details: Homo sapiens; MDA-MB-231, 48 hr
Description: (§1) Cancer cell growth, viability, and apoptosis assays. HCT116, SW620, SW480, MDA-MB-231 cancer lines were maintained according to ATCC guidelines. For cell growth and viability assays, cells were seeded at 2000 cells/100 μl/well in 96-well plates. Cell number was measured at different time points using CellTiter-Glo® Luminescent Cell Viability Assay (Promega). For apoptosis assays, cells were seeded at 5000 cells/100 μl/well in 96-well plates. Drug was added for 24 hr and Caspase-3 and -7 activities were measured using Apo-ONE® Homogeneous Caspase-3/7 Assay (Promega).

SW620 = test: Cell viability (CellTiter-Glo), SW620; details: Homo sapiens, SW-620; SW620, 48 hr
Description: as §1

SW480 = test: Cell viability (CellTiter-Glo), SW480; details: Homo sapiens; SW480, 48 hr
Description: as §1

Measured: EC50

Cc1cc(/C=C/c2ccc3cc(N(C)C)ccc3[n+]2C)c(C)n1-c1ccccc1 [pyrvinium, pyrvinium pamoate]
< 50 nM: all assays above
